Laboratory results published in patent publication US20260199214A1, “Personal Care Compositions And Methods For The Same” (Colgate-Palmolive Company, priority 2019, published 2026).

Tested on: neonatal human epidermal keratinocytes (HEKn)
Assay: Intracellular ROS by fluorescence microscopy in keratinocytes exposed to urban dust, with niacinamide and/or FSO (Example 2)
Type: cell-based
Conditions: HEKn cells, 200 μg/mL UD, about one hour exposure; niacinamide/FSO concentration per sample
Experimental: An in vitro study was conducted to analyze the skin protecting benefits of varying concentrations of niacinamide and/or FSO. Particularly, an in vitro study was conducted to analyze the efficacy of varying concentrations of niacinamide and/or FSO in reducing and/or preventing ROS in and on the skin.
To conduct the study, neonatal human epidermal keratinocytes (HEKn) were grown in standard well plates having glass bottoms coated with collagen I. The HEKn were cultured in EpiLife™ media supplemented with human keratinocyte growth supplements (HKGS), both of which are commercially available from ThermoFisher Scientific of Waltham, MA. Stock solutions of FSO, niacinamide, and urban dust (UD) were prepared for the treatment of the keratinocytes. It should be appreciated that the UD is representative of particulate matter (PM) pollution.
The presence or amount of intracellular reactive oxygen species (ROS) was measured using fluorescence microscopy. […] After exposure to the oxidative stress detection reagent and the FSO, niacinamide, and/or UD, the keratinocytes were washed twice with a wash buffer and imaged via fluorescence in the wash buffer. Live adherent cells were imaged using GFP excitation/emission filters, and the ROS levels were quantified from raw images using ImageJ software.

SMILES	ROS Levels (%) Relative to UD Alone
NC(=O)c1cccnc1 [Sample 13, niacinamide]	−10.79%
NC(=O)c1cccnc1 [Sample 14, niacinamide]	−3.89%
